Data from patent US20230278972A1, “SUBSTITUTED HALOALKYL SULFONANILIDE HERBICIDES” (FMC Corporation, priority 2020, published 2023).

Assays:
Assay type in all cases: in vivo
[1] = tested on: ragweed (common ragweed, Ambrosia artemisiifolia); assay: Test A1 postemergence, ragweed; conditions: Postemergence
Procedure, shortened: (§1)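 Seeds were first planted into a blend of loam soil and sand and given a preemergence directed soil spray. In parallel, pots of the same soil were sown for postemergence application once plants reached 2 to 10 cm and the one- to two-leaf stage. Both used surfactant-containing non-phytotoxic solvent formulations.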

corn (Zea mays) [2] = assay: Test A1 preemergence, corn
Procedure, shortened: as §1

kochia (Bassia scoparia) [3] = assay: Test A1 preemergence, kochia
Procedure, shortened: (§2)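 Test compounds were formulated in a non-phytotoxic solvent mixture containing a surfactant. For preemergence, seeds sown in a loam soil–sand blend received a directed soil spray. For postemergence, potted plants in the same soil, 2 to 10 cm tall at the one- to two-leaf stage, were sprayed.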

[4] = tested on: Ryegrass, Italian (Italian ryegrass, Lolium multiflorum); assay: Test A1 postemergence, Ryegrass, Italian; conditions: Postemergence
Procedure, shortened: (§3)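 Herbicidal response was scored on plants treated either preemergence, by directed spray onto soil of a loam–sand blend after sowing, or postemergence on potted plants at the one- to two-leaf stage, 2–10 cm high. Test chemicals were carried in a non-phytotoxic solvent mix with surfactant.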

[5] = tested on: blackgrass (Alopecurus myosuroides); assay: Test A1 postemergence, blackgrass; conditions: Postemergence, 0 to 100 scale (0 no effect, 100 complete control)
Procedure, shortened: as §3

corn (Zea mays) [6] = assay: Test A1 postemergence, corn; conditions: Postemergence
Procedure, shortened: as §2

[7] = tested on: barnyardgrass (Echinochloa crus-galli); assay: Test B1 flooded paddy test, barnyardgrass; conditions: 250 g ai/ha, Flood, applied to paddy water, 2-leaf stage, visually evaluated after 10 to 14 days
Source text: (§4) A dash (-) response means no test result.

soybean (Glycine max) [8] = assay: Test A1 postemergence, soybean; conditions: Postemergence
Procedure, shortened: as §3

[9] = tested on: Oat, Wild (wild oat, Avena fatua); assay: Test A1 preemergence, Oat, Wild
Procedure, shortened: as §2

[10] = tested on: blackgrass (Alopecurus myosuroides); assay: Test A1 preemergence, blackgrass
Procedure, shortened: as §2

[11] = tested on: goosegrass (Eleusine indica); assay: Test A1 postemergence, goosegrass; conditions: Postemergence
Procedure, shortened: as §3

[12] = tested on: Ryegrass, Italian (Italian ryegrass, Lolium multiflorum); assay: Test A1 preemergence, Ryegrass, Italian
Procedure, shortened: as §2

[13] = tested on: wheat (Triticum aestivum); assay: Test A1 postemergence, wheat; conditions: Postemergence
Procedure, shortened: as §3

[14] = tested on: ducksalad (Heteranthera limosa); assay: Test B1 flooded paddy test, ducksalad; conditions: 250 g ai/ha, Flood, applied to paddy water, 2-leaf stage, visually evaluated after 10 to 14 days
Source text: as §4

[15] = tested on: horseweed (Erigeron canadensis); assay: Test A1 postemergence, horseweed; conditions: Postemergence
Procedure, shortened: as §3

[16] = tested on: wheat (Triticum aestivum); assay: Test A1 preemergence, wheat
Procedure, shortened: as §2

[17] = tested on: Oat, Wild (wild oat, Avena fatua); assay: Test A1 postemergence, Oat, Wild; conditions: Postemergence
Procedure, shortened: as §1

[18] = tested on: Pigweed, Palmer (palmer amaranth, palmer pigweed, Amaranthus palmeri); assay: Test A1 preemergence, Pigweed, Palmer
Procedure, shortened: as §2

kochia (Bassia scoparia) [19] = assay: Test A1 postemergence, kochia; conditions: Postemergence
Procedure, shortened: as §3

[20] = tested on: Foxtail, Giant (giant foxtail, Setaria faberi); assay: Test A1 postemergence, Foxtail, Giant; conditions: Postemergence
Procedure, shortened: as §3

[21] = tested on: goosegrass (Eleusine indica); assay: Test A1 preemergence, goosegrass
Procedure, shortened: as §2

rice (Oryza sativa) = assay: Test B1 flooded paddy test, rice; conditions: 250 g ai/ha, Flood, applied to paddy water, 2-leaf stage, visually evaluated after 10 to 14 days
Source text: as §4

[22] = tested on: Foxtail, Giant (giant foxtail, Setaria faberi); assay: Test A1 preemergence, Foxtail, Giant
Procedure, shortened: as §2

[23] = tested on: ragweed (common ragweed, Ambrosia artemisiifolia); assay: Test A1 preemergence, ragweed
Procedure, shortened: as §2

[24] = tested on: Pigweed, Palmer (palmer amaranth, palmer pigweed, Amaranthus palmeri); assay: Test A1 postemergence, Pigweed, Palmer; conditions: Postemergence
Procedure, shortened: as §1

soybean (Glycine max) [25] = assay: Test A1 preemergence, soybean
Procedure, shortened: as §2

[26] = tested on: galium (catchweed bedstraw, Galium aparine); assay: Test A1 postemergence, galium; conditions: Postemergence
Procedure, shortened: as §3

[27] = 31 g ai/ha, 0 to 100 scale (0 no effect, 100 complete control), 10 days
[28] = 31 g ai/ha, 0 to 100 scale (0 no effect, 100 complete control)
[29] = 125 g ai/ha, 0 to 100 scale, 0 no effect, 100 complete control

SMILES: Cc1c(C(=O)N2CCC(F)CC2)cc(N(COC(=O)C(C)(C)C)S(=O)(=O)C(F)(F)F)c(C)c1C [Compound 361]
- Plant response rating, Ragweed [1, 27]: 60
- Plant response rating, Ragweed ([1]; 125 g ai/ha, 0 to 100 scale): 80
- Plant response rating, Corn (corn (Zea mays) [2]; [28]): 0
- Plant response rating, Corn (corn (Zea mays) [2]; [29]): 0
- Plant response rating, Kochia (kochia (Bassia scoparia) [3]; [28]): 0
- Plant response rating, Kochia (kochia (Bassia scoparia) [3]; [29]): 30
- Plant response rating, Ryegrass, Italian [4, 27]: 0
- Plant response rating, Ryegrass, Italian ([4]; 125 g ai/ha, 0 to 100 scale): 0
- Plant response rating, Blackgrass ([5]; 31 g ai/ha, 10 days): 0
- Plant response rating, Blackgrass ([5]; 125 g ai/ha): 0
- Plant response rating, Corn (corn (Zea mays) [6]; [27]): 0
- Plant response rating, Corn (corn (Zea mays) [6]; 125 g ai/ha, 0 to 100 scale): 40
- Plant response rating, Barnyardgrass (0 to 100 scale, 0 is no effect, 100 is complete control) [7]: 95
- Plant response rating, Soybean (soybean (Glycine max) [8]; [27]): 50
- Plant response rating, Soybean (soybean (Glycine max) [8]; 125 g ai/ha, 0 to 100 scale): 70
- Plant response rating, Oat, Wild [9, 28]: 0
- Plant response rating, Oat, Wild [9, 29]: 0
- Plant response rating, Blackgrass [10, 28]: 0
- Plant response rating, Blackgrass [10, 29]: 0
- Plant response rating, Goosegrass [11, 27]: 0
- Plant response rating, Goosegrass ([11]; 125 g ai/ha, 0 to 100 scale): 30
- Plant response rating, Ryegrass, Italian [12, 28]: 0
- Plant response rating, Ryegrass, Italian [12, 29]: 0
- Plant response rating, Wheat [13, 27]: 0
- Plant response rating, Wheat ([13]; 125 g ai/ha, 0 to 100 scale): 20
- Plant response rating, Ducksalad (0 to 100 scale, 0 is no effect, 100 is complete control) [14]: 65
- Plant response rating, Horseweed [15, 27]: 70
- Plant response rating, Horseweed ([15]; 125 g ai/ha, 0 to 100 scale): 90
- Plant response rating, Wheat [16, 28]: 0
- Plant response rating, Wheat [16, 29]: 0
- Plant response rating, Oat, Wild [17, 27]: 0
- Plant response rating, Oat, Wild ([17]; 125 g ai/ha, 0 to 100 scale): 20
- Plant response rating, Pigweed, Palmer [18, 28]: 0
- Plant response rating, Pigweed, Palmer [18, 29]: 20
- Plant response rating, Kochia (kochia (Bassia scoparia) [19]; [27]): 0
- Plant response rating, Kochia (kochia (Bassia scoparia) [19]; 125 g ai/ha, 0 to 100 scale): 50
- Plant response rating, Foxtail, Giant [20, 27]: 10
- Plant response rating, Foxtail, Giant ([20]; 125 g ai/ha, 0 to 100 scale): 50
- Plant response rating, Goosegrass [21, 28]: 10
- Plant response rating, Goosegrass [21, 29]: 100
- Plant response rating, Rice (0 to 100 scale, 0 is no effect, 100 is complete control) (rice (Oryza sativa)): 35
- Plant response rating, Foxtail, Giant [22, 28]: 0
- Plant response rating, Foxtail, Giant [22, 29]: 90
- Plant response rating, Ragweed [23, 28]: 20
- Plant response rating, Ragweed [23, 29]: 90
- Plant response rating, Pigweed, Palmer [24, 27]: 10
- Plant response rating, Pigweed, Palmer ([24]; 125 g ai/ha, 0 to 100 scale): 20
- Plant response rating, Soybean (soybean (Glycine max) [25]; [28]): 0
- Plant response rating, Soybean (soybean (Glycine max) [25]; [29]): 20
- Plant response rating, Galium [26, 27]: 80
- Plant response rating, Galium ([26]; 125 g ai/ha, 0 to 100 scale): 90

SMILES: Cc1cc(C)c(N(COC(=O)C(C)(C)C)S(=O)(=O)C(F)(F)F)cc1C(=O)N1CCOCC1 [Compound 362]
- Plant response rating, Ragweed [1, 27]: 70
- Plant response rating, Ragweed ([1]; 125 g ai/ha, 0 to 100 scale): 80
- Plant response rating, Corn (corn (Zea mays) [2]; [28]): 0
- Plant response rating, Corn (corn (Zea mays) [2]; [29]): 30
- Plant response rating, Kochia (kochia (Bassia scoparia) [3]; [28]): 50
- Plant response rating, Kochia (kochia (Bassia scoparia) [3]; [29]): 90
- Plant response rating, Ryegrass, Italian [4, 27]: 30
- Plant response rating, Ryegrass, Italian ([4]; 125 g ai/ha, 0 to 100 scale): 90
- Plant response rating, Blackgrass ([5]; 31 g ai/ha, 10 days): 0
- Plant response rating, Blackgrass ([5]; 125 g ai/ha): 50
- Plant response rating, Corn (corn (Zea mays) [6]; [27]): 0
- Plant response rating, Corn (corn (Zea mays) [6]; 125 g ai/ha, 0 to 100 scale): 40
- Plant response rating, Barnyardgrass (0 to 100 scale, 0 is no effect, 100 is complete control) [7]: 95
- Plant response rating, Soybean (soybean (Glycine max) [8]; [27]): 50
- Plant response rating, Soybean (soybean (Glycine max) [8]; 125 g ai/ha, 0 to 100 scale): 70
- Plant response rating, Oat, Wild [9, 28]: 0
- Plant response rating, Oat, Wild [9, 29]: 30
- Plant response rating, Blackgrass [10, 28]: 10
- Plant response rating, Blackgrass [10, 29]: 50
- Plant response rating, Goosegrass [11, 27]: 40
- Plant response rating, Goosegrass ([11]; 125 g ai/ha, 0 to 100 scale): 90
- Plant response rating, Ryegrass, Italian [12, 28]: 30
- Plant response rating, Ryegrass, Italian [12, 29]: 70
- Plant response rating, Wheat [13, 27]: 40
- Plant response rating, Wheat ([13]; 125 g ai/ha, 0 to 100 scale): 60
- Plant response rating, Ducksalad (0 to 100 scale, 0 is no effect, 100 is complete control) [14]: 50
- Plant response rating, Horseweed [15, 27]: 90
- Plant response rating, Horseweed ([15]; 125 g ai/ha, 0 to 100 scale): 90
- Plant response rating, Wheat [16, 28]: 20
- Plant response rating, Wheat [16, 29]: 70
- Plant response rating, Oat, Wild [17, 27]: 0
- Plant response rating, Oat, Wild ([17]; 125 g ai/ha, 0 to 100 scale): 10
- Plant response rating, Pigweed, Palmer [18, 28]: 10
- Plant response rating, Pigweed, Palmer [18, 29]: 80
- Plant response rating, Kochia (kochia (Bassia scoparia) [19]; [27]): 50
- Plant response rating, Kochia (kochia (Bassia scoparia) [19]; 125 g ai/ha, 0 to 100 scale): 80
- Plant response rating, Foxtail, Giant [20, 27]: 20
- Plant response rating, Foxtail, Giant ([20]; 125 g ai/ha, 0 to 100 scale): 90
- Plant response rating, Goosegrass [21, 28]: 90
- Plant response rating, Goosegrass [21, 29]: 100
- Plant response rating, Rice (0 to 100 scale, 0 is no effect, 100 is complete control) (rice (Oryza sativa)): 10
- Plant response rating, Foxtail, Giant [22, 28]: 20
- Plant response rating, Foxtail, Giant [22, 29]: 90
- Plant response rating, Ragweed [23, 28]: 0
- Plant response rating, Ragweed [23, 29]: 50
- Plant response rating, Pigweed, Palmer [24, 27]: 10
- Plant response rating, Pigweed, Palmer ([24]; 125 g ai/ha, 0 to 100 scale): 30
- Plant response rating, Soybean (soybean (Glycine max) [25]; [28]): 10
- Plant response rating, Soybean (soybean (Glycine max) [25]; [29]): 40
- Plant response rating, Galium [26, 27]: 60
- Plant response rating, Galium ([26]; 125 g ai/ha, 0 to 100 scale): 80
